The results in this text go back to patent US8217071B2, “Use of inhibitors of the degradation of p27, in particular Argyrin and derivatives thereof, for the treatment of proliferative diseases” (Helmholtz Zentrum für Infektionsforschung GmbH, priority 2007, dated 2012).

Numbered stars: 1 amine (or outer) side, 2 acyl side, 3 side chain; on linkers, the order of the positions; unused ones are H or OH. Square brackets hold non-standard residues; d marks the D form. Peptide text beside a SMILES is read from it. dAla(ψthiazole) = C[C@@H](N[*:1])c1nc(C(=O)[*:2])cs1; Trp(4-OMe) = COc1cccc2[nH]cc(C[C@H](N)C(=O)O)c12; Dha = C=C(N)C(=O)O; Sar = CNCC(=O)O

The test system of experiment [1] is CD31 positive endothelial cells in tumour tissues (SW480 or HCT116). The experiment can be described thus: Microvessel density (CD31) in tumour tissue after single injection. The class given is in vivo, mouse. The protocol:
This phenotype is often observed with drugs which interfere with blood vessel formation or compounds which directly damage existing tumour vessels. […] This reduction in tumour vasculature was paralleled by an induction of p27^kip1 expression in the CD31 positive endothelial cells. (FIG. 7A). To understand this phenotype in more detail the inventors analyzed primary tumour material by electronic microscopy. As early as 90 minutes after injection the inventors observed swelling of endothelial cell which was followed by a loss of basal membrane attachment and cell-cell contacts (FIG. 4D) in the tumour vasculature. As a result of the apparent loss of cell and basal membrane attachment after Argyrin A treatment many of the examined tumour blood vessels were occluded with endothelial cells or erythrocytes. The destruction of the tumour core which the inventors observed after Argyrin A treatment might therefore be a result of thrombotic occlusion of the affected blood vessels. In contrast the bortezomib induced reduction in CD31 positive cells correlated with the appearance of necrotic endothelial cells (FIG. 4D).
(§1) Treatment with Argyrin A or bortezomib was started when these tumours reached a volume of 200 mm3. […] (n=8 Argyrin A, n=8 Bortezomib, n=6 PBS/EtOH) b) The pictures show the macroscopic appearance of a xenotransplant tumour after 10 days of treatment with Argyrin A. Note the large necrotic centre of the explanted tumour. c) After a single injection of Argyrin A (0.15 mg/kg bodyweight) or bortezomib (1.0 mg/kg bodyweight) tumours were explanted at the indicated time points and blood vessels in the tumour tissue were co-stained for CD31 and p27. […] Note the swelling of the endothelial cell (“E”) and the occlusion of the lumen (“L”) by erythrocytes after 90 minutes of Argyrin A treatment. The arrow marks the detachment of endothelial cells after 48 h of Argyrin A treatment. […] Tube length (f) and blood vessel like […] structures were determined using photographs of HUVEC cultures. The micrographs show representative examples of HUVEC cultures under the indicated conditions.
Immunohistochemical staining of mouse tumour tissue, western Blotting and immunofluorescence experiments were done as previously described (Timmerbeul, I. et al. Testing the importance of p27 degradation by the SCFskp2 pathway in murine models of lung and colon cancer. Proc Natl Acad Sci USA 103, 14009-14 (2006). Kossatz, U. et al. C-terminal phosphorylation controls the stability and function of p27^kip1. Embo J 25, 5159-70 (2006).). […]

Experiment [2] concerns HUVEC. The experiment can be described thus: In vitro capillary-like tube structure formation on matrigel. The class given is cell-based, human.
Text: The inventors then asked whether Argyrin A was also able to prevent the formation of capillary like tube structures formed by HUVEC on matrigel, an assay frequently used to test the ability of a compound to interfere with neovascularization. […] The addition of Argyrin A led to a 40% reduction in tube formation in this assay. Importantly transfection of siRNA against p27 protected endothelial cells against the inhibitory activity of Argyrin A. The effects exerted by Bortezomib in this assay were smaller and not rescued by loss of p27. In addition to tube length the inventors also quantitated the number of blood vessel like structures formed by HUVECS after treatment with Argyrin A or bortezomib (FIG. 4F).
as §1
Primary microvascular endothelial cells (HMVEC) were isolated from human foreskin. The cells were kept at 37° C. and 10% CO2 in EGM-2 MV from Cambrex which includes the basal medium (EBM-2), FBS, hydrocortisone, hFGF-B, VEGF, R3-IGF, ascorbic acid, hEGF, gentamicin and amphotericin. The effect of argyrin A or bortezomib on in vitro angiogenesis was determined by matrigel capillary-like tube structure formation assay. To examine the effect of the different compounds on in vitro angiogenesis, HMVECs were seeded in 96-well culture plates precoated with Matrigel (BD Biosciences, #354248) and exposed to argyrin A or bortezomib. Enclosed networks of tube structures from three randomly chosen fields were scored under the microscope (Leica, Cambridge, United Kingdom). Pictures were taken with an Axio Vision 3.1 Zeiss camera and scored by determining tube length and the formation of closed vessel like structures.

The mark [3] stands for this setting: Argyrin A 1 μM, bortezomib 10 nM.

In the case of `CC(C)C[C@H](NC(=O)[C@H](Cc1ccccc1)NC(=O)c1cnccn1)B(O)O` [bortezomib, reference compound], the “number of CD31 positive endothelial cells” value in experiment [1] (single injection) was “reduction”. The “number of blood vessel like structures” value in experiment [2] (setting [3]) is recorded as “significant reduction”. The “effect on tube formation compared with Argyrin A” value in experiment [2] (bortezomib 10 nM) is on record as “smaller”.

Take `C=C1NC(=O)[C@@H](C)NC(=O)CNC(=O)[C@H](Cc2c[nH]c3cccc(OC)c23)NC(=O)[C@H](Cc2c[nH]c3ccccc23)NC(=O)c2csc(n2)[C@@H](C)NC(=O)CN(C)C1=O` [Argyrin A] (cyclo(W[Trp(4-OMe)]G[dA][Dha][Sar][dAla(ψthiazole)])): the “CD31 positive cells remaining” value in experiment [1] (72 hours after injection) is on record as “about 10%”. Moreover, in experiment [1] (single injection), the “number of CD31 positive endothelial cells” value is listed as “significant reduction” and the “start of reduction of CD31 positive endothelial cells after injection” value was at least 90 min. The “number of blood vessel like structures” value in experiment [2] (setting [3]) is given as “significant reduction”. Also, in experiment [2] (VEGF stimulation, Argyrin A 1 μM), the “reduction in tube formation (relative length of capillary tubes)” value came out at 40%.
